The text below walks through data of US7625878B2, “Sulfoalkyl ether-alkyl ether cyclodextrin derivatives” (The University of Kansas, priority 2003, dated 2009).

Holding throughout (type): physicochemical
Data set [1] is described as follows: binding constant K1:1 of inclusion complex with Nifedipine. Particulars: substrate Nifedipine, value (spread). As to the method: (§1) The following tables detail some of the SAE-AE-CD's according to the invention. These products were made according to the examples below. The table indicates the inclusion complexes formed with the indicated drugs and cyclodextrins as well as their corresponding linear binding constants (K1:1) determined at 25° C.
(§2) Excess amount of drug was added to a CD-containing aqueous solution (concentration ranging from 0 to 0.10M). […] The suspension was centrifuged for 5 min. at 3000 rpm (Dynac™ centrifuge, Clay Adams, Parsippany, N.J.). A 20 μL sample was obtained from the supernatant and diluted to 1-5-ml with glass double distilled water.
(§3) The mobile phase(s) was chosen in accordance with the properties of the analyzed drug and its behavior in interacting with the chromatographic support. Suitable exemplary conditions for specific drugs are detailed in the table below.
(§4) The following general procedure was used to determine the extent of inclusion complex formation for an active agent/cyclodextrin derivative combination. The change in absorbance due to inclusion complex formation for a drug was monitored. The change in absorbance value as a function of total ligand concentration at a fixed concentration of substrate was measured. The wavelength for analysis was chosen appropriately depending on the analyzed drug. […]

Data set [2] in a line: binding constant K1:1 of inclusion complex with α-Me-Prednisolone. Particulars: substrate α-Me-Prednisolone, value (spread). As to the method: as §1, §2, §3, §4
Data set [3] in a line: binding constant K1:1 of inclusion complex with Prednisolone. The note with it: substrate Prednisolone, value (spread). The method, then: as §1
(§5) The following general procedure was used to determine the extent of inclusion complex formation for an active agent/cyclodextrin derivative combination. The change in absorbance due to inclusion complex formation for a drug was monitored. The change in absorbance value as a function of total ligand concentration at a fixed concentration of substrate was measured. The wavelength for analysis was chosen appropriately depending on the analyzed drug. The analysis was performed using a Perkin Elmer double beam UV/Vis Lamda 6 instrument equipped with a data manager software and water jacketed multicell attachment. A circulating water bath was used to provide constant temperature during experiments. The data were linearized using the method described by Foster et al.: R. Foster, D. L. Hammich, A. A Wardley (Interaction of Polynitro compounds with Aromatic Hydroquinones and Bases. Part III. A New Method for Determining the Association Constants for Certain Interactions between Nitro Compounds and Bases in Solution. J. Chem. Soc. (1953) 3817-20). […]

Data set [4] is described as follows: binding constant K1:1 of inclusion complex with Nimodipine. The note with it: substrate Nimodipine, value (spread). The method, then: as §1, §5
Data set [5] can be described thus: binding constant K1:1 of inclusion complex with Nitrendipine. The note with it: substrate Nitrendipine, value (spread). As to the method:
as §1, §5

The nature of data set [6]: binding constant K1:1 of inclusion complex with Clotrimazole. The note with it: substrate Clotrimazole, value (spread). As to the method: as §1, §5
Data set [7] in a line: binding constant K1:1 of inclusion complex with Triamcinolone. Particulars: substrate Triamcinolone, value (spread). The method, then:
as §1, §5

Data set [8] in a line: binding constant K1:1 of inclusion complex with Camptothecin. The note with it: substrate Camptothecin, value (spread). The method, then: as §1, §2, §3

Regarding `OC[C@H]1O[C@@H]2O[C@H]3[C@H](O)[C@@H](O)[C@@H](O[C@H]4[C@H](O)[C@@H](O)[C@@H](O[C@H]5[C@H](O)[C@@H](O)[C@@H](O[C@H]6[C@H](O)[C@@H](O)[C@@H](O[C@H]7[C@H](O)[C@@H](O)[C@@H](O[C@H]8[C@H](O)[C@@H](O)[C@@H](O[C@H]1[C@H](O)[C@H]2O)O[C@@H]8CO)O[C@@H]7CO)O[C@@H]6CO)O[C@@H]5CO)O[C@@H]4CO)O[C@@H]3CO` [β-CD, β-cyclodextrin], the “K1:1 25° C.” value in data set [1] was 121.9(35).

Consider `OC[C@H]1O[C@@H]2O[C@H]3[C@H](O)[C@@H](O)[C@@H](O[C@H]4[C@H](O)[C@@H](O)[C@@H](O[C@H]5[C@H](O)[C@@H](O)[C@@H](O[C@H]6[C@H](O)[C@@H](O)[C@@H](O[C@H]7[C@H](O)[C@@H](O)[C@@H](O[C@H]8[C@H](O)[C@@H](O)[C@@H](O[C@H]9[C@H](O)[C@@H](O)[C@@H](O[C@H]1[C@H](O)[C@H]2O)O[C@@H]9CO)O[C@@H]8CO)O[C@@H]7CO)O[C@@H]6CO)O[C@@H]5CO)O[C@@H]4CO)O[C@@H]3CO` [γ-CD, γ-cyclodextrin], for which the “K1:1 25° C.” value in data set [2] is 3038(269); in data set [3], 3300.42(21); in data set [1], 1416.1(162); in data set [4] it was 1780(190); in data set [5], 2508(59); in data set [6] it was 1015(30). The “K1:1 25° C.” value in data set [7] was 9769 (560); in data set [8] it was 73 M⁻¹.
